The values that follow are results of earlier work, collected in paper PMC9486541, “Design, synthesis and cytotoxic evaluation of novel betulonic acid-diazine derivatives as potential antitumor agents” (Frontiers in Chemistry, 2022).

The term IC50 denotes the concentration at which inhibition is half-maximal.

Some test systems named below: HCT-116 cells; DLD-1 cells; SW872.
What all share (design): method as in list in b5
What all share (conditions): Figure 1, representative BoA derivatives; ref list in b5; cited from earlier work

Turning to `C=C(C)C1CCC2(C(=O)O)CCC3(C)C(CCC4C5(C)CC(=Cc6ccc([N+](=O)[O-])cc6)C(O)C(C)(C)C5CCC43C)C12` (stereo not drawn) [Compound 5], the IC50 in the series on HCT-116 cells was 1360 nM.

Take `C=C(C)C1CCC2(COC(C)=O)CCC3(C)C(CCC4C5(C)CCC(OC6OC(CO)C(O)C(O)C6O)C(C)(C)C5CCC43C)C12` (stereo not drawn) [Compound 6]: the half-inhibitory concentration (IC50) in the series on DLD-1 cells is 4.45 µM. As to `C=C(C)[C@@H]1CC[C@]2(C(=O)OCC(N)(CO)CO)CC[C@]3(C)[C@H](CC[C@@H]4[C@@]5(C)CC[C@H](OC(C)=O)C(C)(C)[C@@H]5CC[C@]43C)[C@@H]12` [Compound 7], the IC50 with SW872 was 1800 nM.
